Assay results as given in US20190152957A1, “PYRIDIN-3-YL ACETIC ACID DERIVATIVES AS INHIBITORS OF HUMAN IMMUNODEFICIENCY VIRUS REPLICATION” (ViiV HEALTHCARE UK (NO.5) LIMITED, priority 2016, published 2019).

Tested on: recombinant NL-RLuc virus (HIV NL4-3 with Renilla Luciferase gene) in MT-2 cells
Assay: Inhibition of HIV replication (NL-RLuc virus, luciferase readout in MT-2 cells)
Format: cell-based
Settings: MT2, 120 h, read-out: Activity

Cc1nc(C)c([C@H](OC(C)(C)C)C(=O)O)c(N2CCC(C)(C)CC2)c1-c1ccc2c(c1)CCN(Cc1ccnc(Cl)c1F)C2 [Compound 28, (S)-2-(tert-butoxy)-2-(5-(2-((2-chloro-3-fluoropyridin-4-yl)methyl)-1,2,3,4-tetrahydroisoquinolin-6-yl)-4-(4,4-dimethylpiperidin-1-yl)-2,6-dimethylpyridin-3-yl)acetic acid]
EC50: < 100 nM

Cc1nc(C)c([C@H](OC(C)(C)C)C(=O)O)c(N2CCC(C)(C)CC2)c1-c1ccc2c(c1)CCN(CC1CC1)C2 [Compound 4, (S)-2-(tert-butoxy)-2-(5-(2-(cyclopropylmethyl)-1,2,3,4-tetrahydroisoquinolin-6-yl)-4-(4,4-dimethylpiperidin-1-yl)-2,6-dimethylpyridin-3-yl)acetic acid]
EC50: < 100 nM

Cc1nc(C)c([C@H](OC(C)(C)C)C(=O)O)c(N2CCC(C)(C)CC2)c1-c1ccc2c(c1)CCN(Cc1ncco1)C2 [Compound 37, (S)-2-(tert-butoxy)-2-(4-(4,4-dimethylpiperidin-1-yl)-2,6-dimethyl-5-(2-(oxazol-2-ylmethyl)-1,2,3,4-tetrahydroisoquinolin-6-yl)pyridin-3-yl)acetic acid]
EC50: < 100 nM
